Results reported in US11160808B2, “Compounds that enhance Atoh1 expression” (Massachusetts Eye & Ear Infirmary, priority 2008, dated 2021).

Assays:
Math1 mRNA = Math1 mRNA expression by RT-PCR in HEK cells; format: cell-based, human; details: among the four randomly selected compounds
Description: Ten compounds, randomly selected from the group of 110 compounds identified in Example 2, were further evaluated, as follows. HEK cells were plated on 96 well plates at a density of 100000 cells per well. One day after plating, 0.1, 1, and 5 μM of each positive compound was added per well in a 10% fetal bovine serum (FBS) DMEM solution. Cells were then lysed 48 hours after addition of the compound and Math1 expression was analyzed using a luciferase reporter assay, as described above, and real-time PCR.
RNA was also isolated and Math1 transcripts were amplified using high-throughput RT-PCR.

[1] = LD50 (median lethal dose) determination; format: cell-based
Text: IC50 is a measure of the effectiveness of a compound in inhibiting biological or biochemical function. LD50 is the amount of a compound required to kill half the members of a tested population.

[2] = system: Math1 enhancer and minimal promoter Luciferase reporter in HEK cells; experiment: Math1 Luciferase reporter assay in HEK cells; format: cell-based, human; details: Homo sapiens, HEK293
In short: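 HEK cells stably carrying luciferase under the Math1 enhancer and minimal promoter were treated with compounds for 48 hours at 37° C, then lysed for luminescence, normalized to DMSO. Hits were defined as a 2-fold increase, with 1 μM retinoic acid as positive control. Follow-up used 0.1, 1 and 5 μM for 48 hours in 10% FBS DMEM, read by luciferase and real-time PCR.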

Inner ear stem cells = experiment: Hair cell differentiation of inner ear stem cells (Math1-GFP and myosin 7a co-labeling); format: cell-based; details: cells co-labeled with Math1-GFP and myosin 7a; control 1.6%
Text: Inner ear stem cells were exposed to compound CP.-0000540, which was selected at random from the group of 110 positive compounds described in Example 2.
Hair cell differentiation was increased to 5.1% of total cells compared to 1.6% for control.

In the case of `Clc1ccc2nc(-c3ccccc3)n(OCc3ccccc3Cl)c2c1` [CP-0000540, 6-chloro-1-(2-chlorobenzyloxy)-2-phenyl-1H-benzo[d]imidazole], the “increase in Math1 mRNA expression (ranking in words)” value (Math1 mRNA) is reported as “highest increase”, the “LD50” value [1] is reported as over 30 µM and the IC50 ([2]; read-out: IC50) is reported as 1.3 µM. For the same compound, the maximal fold induction ([2]; read-out: Maximum (Fold DMSO)) was 2 and the Hair cell differentiation (Inner ear stem cells) was 5.1 % of total cells.
